Source: the kinase profiling compilation of Christmann-Franck et al. (2016)

What was measured:
Assay in all cases: radiometric filter-binding kinase assay
DAPK1 (human) = DAPK1 (human) (UniProt P53355); conditions: compound 0.1 µM
MAP3K9 (human) = MAP3K9 (human) (UniProt P80192)
GSK3B (human) = GSK3B (human) (UniProt P49841)
BRSK2 (human) = BRSK2 (human) (UniProt Q8IWQ3)
ROCK2 (rat) = conditions: accession and sequence are those of the human protein
CSK (human) = CSK (human) (UniProt P41240)
MAP3K1 (human) = MAP3K1 (human) (UniProt Q13233); conditions: compound 0.1 µM
HIPK3 (human) = HIPK3 (human) (UniProt Q9H422); conditions: compound 0.1 µM
HIPK2 (human) = HIPK2 (human) (UniProt Q9H2X6)
LCK (mouse) = conditions: accession and sequence are those of the human protein
EPHB1 (human) = EPHB1 (human) (UniProt P54762); conditions: compound 0.1 µM
PLK1 (human) = PLK1 (human) (UniProt P53350)
MAP3K5 (human) = MAP3K5 (human) (UniProt Q99683); conditions: compound 0.1 µM
PRKAA1 or PRKAA2 (rat) = conditions: accession and sequence are those of the human protein
SRC (human) = SRC (human) (UniProt P12931)
MAP3K7 TAB1 (human) = MAP3K7 TAB1 (human) (UniProt Q15750+O43318); conditions: compound 0.1 µM
EPHA4 (human) = EPHA4 (human) (UniProt P54764); conditions: compound 0.1 µM
HIPK1 (human) = HIPK1 (human) (UniProt Q86Z02); conditions: compound 0.1 µM
YES1 (human) = YES1 (human) (UniProt P07947)
MAPK13 (human) = MAPK13 (human) (UniProt O15264)
CLK2 (human) = CLK2 (human) (UniProt P49760); conditions: compound 0.1 µM
PRKCZ (human) = PRKCZ (human) (UniProt Q05513)
SYK (human) = SYK (human) (UniProt P43405)
MARK4 (human) = MARK4 (human) (UniProt Q96L34); conditions: compound 0.1 µM
MAPK1 (human) = MAPK1 (human) (UniProt P28482)
INSR (human) = INSR (human) (UniProt P06213)
[1] = tested on: AKT2 (human), P31751 [S474D]
EPHB3 (human) = EPHB3 (human) (UniProt P54753)
PKN2 (human) = PKN2 (human) (UniProt Q16513)
RPS6KA5 KD1 KD2 (human) = RPS6KA5 KD1 KD2 (human) (UniProt O75582)
IGF1R (human) = IGF1R (human) (UniProt P08069)
MAPK11 (human) = MAPK11 (human) (UniProt Q15759)
CAMKK2 (human) = CAMKK2 (human) (UniProt Q96RR4)
PAK7 (human) = PAK7 (human) (UniProt Q9P286)
EPHB4 (human) = EPHB4 (human) (UniProt P54760); conditions: compound 0.1 µM
PAK6 (human) = PAK6 (human) (UniProt Q9NQU5)
PAK6 (human), sequence (Q9NQU5 whole entry, looked up): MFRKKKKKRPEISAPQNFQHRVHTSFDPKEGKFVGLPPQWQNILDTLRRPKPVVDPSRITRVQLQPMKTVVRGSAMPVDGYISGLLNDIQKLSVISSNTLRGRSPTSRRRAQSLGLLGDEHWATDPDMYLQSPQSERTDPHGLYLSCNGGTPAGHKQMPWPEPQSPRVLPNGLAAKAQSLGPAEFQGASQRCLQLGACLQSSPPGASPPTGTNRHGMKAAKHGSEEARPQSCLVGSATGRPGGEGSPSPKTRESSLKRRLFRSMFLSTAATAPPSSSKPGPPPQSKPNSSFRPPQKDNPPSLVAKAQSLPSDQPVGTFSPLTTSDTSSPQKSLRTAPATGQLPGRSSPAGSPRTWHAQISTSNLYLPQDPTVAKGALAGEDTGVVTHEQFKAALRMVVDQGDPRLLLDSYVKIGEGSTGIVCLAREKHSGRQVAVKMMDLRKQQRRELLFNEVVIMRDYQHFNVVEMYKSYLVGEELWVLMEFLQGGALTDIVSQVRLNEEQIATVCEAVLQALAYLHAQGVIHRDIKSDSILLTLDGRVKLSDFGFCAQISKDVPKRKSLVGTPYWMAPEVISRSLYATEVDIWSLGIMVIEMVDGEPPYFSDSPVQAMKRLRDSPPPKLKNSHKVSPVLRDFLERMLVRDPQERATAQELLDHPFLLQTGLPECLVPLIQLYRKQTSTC

SRC (human), sequence (P12931 whole entry, looked up): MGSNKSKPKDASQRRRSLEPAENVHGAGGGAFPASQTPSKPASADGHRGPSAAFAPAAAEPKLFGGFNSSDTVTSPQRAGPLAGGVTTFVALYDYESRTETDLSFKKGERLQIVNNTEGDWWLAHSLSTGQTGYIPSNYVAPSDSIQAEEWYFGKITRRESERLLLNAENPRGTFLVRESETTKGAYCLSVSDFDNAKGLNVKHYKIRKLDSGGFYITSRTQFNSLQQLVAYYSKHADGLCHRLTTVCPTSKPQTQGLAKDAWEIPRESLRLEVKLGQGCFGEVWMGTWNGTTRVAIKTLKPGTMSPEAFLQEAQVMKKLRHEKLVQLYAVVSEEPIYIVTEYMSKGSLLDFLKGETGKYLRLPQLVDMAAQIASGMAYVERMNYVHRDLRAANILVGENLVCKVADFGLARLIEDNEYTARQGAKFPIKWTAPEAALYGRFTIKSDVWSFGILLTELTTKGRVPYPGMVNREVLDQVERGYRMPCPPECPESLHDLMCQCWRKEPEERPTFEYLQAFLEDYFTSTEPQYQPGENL
AKT2 (human), P31751 [S474D], sequence (P31751 whole entry S474D, looked up): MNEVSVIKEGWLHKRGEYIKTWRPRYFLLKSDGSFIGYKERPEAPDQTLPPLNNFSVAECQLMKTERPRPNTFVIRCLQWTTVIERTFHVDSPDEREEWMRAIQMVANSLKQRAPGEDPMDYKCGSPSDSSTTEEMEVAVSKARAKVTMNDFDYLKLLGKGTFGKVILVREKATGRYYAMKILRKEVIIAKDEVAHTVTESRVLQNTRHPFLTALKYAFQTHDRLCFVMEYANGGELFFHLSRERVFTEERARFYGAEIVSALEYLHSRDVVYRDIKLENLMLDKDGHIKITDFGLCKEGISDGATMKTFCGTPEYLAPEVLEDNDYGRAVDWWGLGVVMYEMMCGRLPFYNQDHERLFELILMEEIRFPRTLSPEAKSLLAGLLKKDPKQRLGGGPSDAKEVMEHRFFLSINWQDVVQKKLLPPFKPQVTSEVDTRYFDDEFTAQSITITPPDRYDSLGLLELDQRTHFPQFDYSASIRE
PRKCZ (human), sequence (Q05513 whole entry, looked up): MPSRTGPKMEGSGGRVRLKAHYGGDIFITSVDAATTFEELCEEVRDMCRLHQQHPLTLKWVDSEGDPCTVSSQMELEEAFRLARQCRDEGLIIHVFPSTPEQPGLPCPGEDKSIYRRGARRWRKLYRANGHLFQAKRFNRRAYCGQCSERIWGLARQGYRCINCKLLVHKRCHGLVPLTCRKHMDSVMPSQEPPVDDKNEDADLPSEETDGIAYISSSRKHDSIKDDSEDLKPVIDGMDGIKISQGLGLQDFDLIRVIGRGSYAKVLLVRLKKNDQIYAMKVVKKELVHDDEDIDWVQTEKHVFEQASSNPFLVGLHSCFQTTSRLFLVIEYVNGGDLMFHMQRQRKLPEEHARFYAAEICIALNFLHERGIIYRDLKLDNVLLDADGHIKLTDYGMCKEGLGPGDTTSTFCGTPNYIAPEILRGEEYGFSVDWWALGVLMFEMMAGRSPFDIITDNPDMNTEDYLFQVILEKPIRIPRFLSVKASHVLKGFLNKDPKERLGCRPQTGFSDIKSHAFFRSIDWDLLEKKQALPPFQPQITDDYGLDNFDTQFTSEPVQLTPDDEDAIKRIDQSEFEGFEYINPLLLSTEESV
PKN2 (human), sequence (Q16513 whole entry, looked up): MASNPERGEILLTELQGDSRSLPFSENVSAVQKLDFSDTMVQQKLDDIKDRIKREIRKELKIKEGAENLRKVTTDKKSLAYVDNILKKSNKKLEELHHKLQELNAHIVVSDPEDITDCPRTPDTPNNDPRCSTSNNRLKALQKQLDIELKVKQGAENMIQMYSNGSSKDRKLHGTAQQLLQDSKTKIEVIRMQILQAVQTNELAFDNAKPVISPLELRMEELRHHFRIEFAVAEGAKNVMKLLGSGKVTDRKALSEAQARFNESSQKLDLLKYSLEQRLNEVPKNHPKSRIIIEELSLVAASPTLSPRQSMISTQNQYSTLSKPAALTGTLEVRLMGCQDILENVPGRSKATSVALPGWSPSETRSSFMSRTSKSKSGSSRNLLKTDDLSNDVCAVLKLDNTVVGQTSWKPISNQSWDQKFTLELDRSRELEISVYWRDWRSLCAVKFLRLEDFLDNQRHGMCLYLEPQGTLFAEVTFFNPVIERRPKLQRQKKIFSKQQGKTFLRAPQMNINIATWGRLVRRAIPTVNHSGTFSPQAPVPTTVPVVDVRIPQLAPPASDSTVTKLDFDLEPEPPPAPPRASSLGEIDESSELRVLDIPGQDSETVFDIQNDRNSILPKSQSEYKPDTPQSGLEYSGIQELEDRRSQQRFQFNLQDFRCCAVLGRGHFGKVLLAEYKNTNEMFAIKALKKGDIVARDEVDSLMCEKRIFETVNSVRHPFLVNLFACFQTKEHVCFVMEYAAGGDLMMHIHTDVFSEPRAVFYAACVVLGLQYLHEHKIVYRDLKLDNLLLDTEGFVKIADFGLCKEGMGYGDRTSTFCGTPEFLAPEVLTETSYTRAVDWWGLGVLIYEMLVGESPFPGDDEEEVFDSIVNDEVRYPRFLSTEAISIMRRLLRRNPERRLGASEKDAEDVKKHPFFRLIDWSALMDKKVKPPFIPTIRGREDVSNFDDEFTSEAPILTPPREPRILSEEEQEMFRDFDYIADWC
MAP3K9 (human), sequence (P80192 whole entry, looked up): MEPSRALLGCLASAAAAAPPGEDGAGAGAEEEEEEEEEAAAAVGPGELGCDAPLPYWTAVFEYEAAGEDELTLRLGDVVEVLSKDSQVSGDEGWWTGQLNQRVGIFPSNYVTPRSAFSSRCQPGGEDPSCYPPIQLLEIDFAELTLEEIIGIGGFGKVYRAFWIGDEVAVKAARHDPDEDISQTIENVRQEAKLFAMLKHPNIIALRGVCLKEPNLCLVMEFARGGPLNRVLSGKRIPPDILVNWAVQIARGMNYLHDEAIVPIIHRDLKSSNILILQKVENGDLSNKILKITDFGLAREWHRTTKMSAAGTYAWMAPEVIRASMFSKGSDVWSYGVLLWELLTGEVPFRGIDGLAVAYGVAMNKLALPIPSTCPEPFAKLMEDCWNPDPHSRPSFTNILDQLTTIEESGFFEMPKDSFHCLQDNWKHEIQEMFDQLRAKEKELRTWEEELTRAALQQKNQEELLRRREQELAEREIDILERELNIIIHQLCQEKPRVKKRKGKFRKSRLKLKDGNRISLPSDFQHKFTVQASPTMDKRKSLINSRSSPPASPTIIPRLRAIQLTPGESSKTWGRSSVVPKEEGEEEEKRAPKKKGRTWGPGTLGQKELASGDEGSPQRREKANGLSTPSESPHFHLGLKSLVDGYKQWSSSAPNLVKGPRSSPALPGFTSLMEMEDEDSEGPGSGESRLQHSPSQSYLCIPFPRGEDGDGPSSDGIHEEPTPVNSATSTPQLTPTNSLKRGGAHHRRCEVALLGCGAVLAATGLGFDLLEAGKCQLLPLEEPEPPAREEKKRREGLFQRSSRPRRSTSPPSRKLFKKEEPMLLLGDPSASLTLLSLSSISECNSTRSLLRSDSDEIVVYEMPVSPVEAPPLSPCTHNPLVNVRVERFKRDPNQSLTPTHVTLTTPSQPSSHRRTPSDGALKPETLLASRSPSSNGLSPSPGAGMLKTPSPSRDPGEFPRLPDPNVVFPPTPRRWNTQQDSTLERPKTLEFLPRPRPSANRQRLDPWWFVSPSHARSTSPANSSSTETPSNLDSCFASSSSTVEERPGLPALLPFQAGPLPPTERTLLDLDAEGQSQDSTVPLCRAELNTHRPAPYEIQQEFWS
MAPK1 (human), sequence (P28482 whole entry, looked up): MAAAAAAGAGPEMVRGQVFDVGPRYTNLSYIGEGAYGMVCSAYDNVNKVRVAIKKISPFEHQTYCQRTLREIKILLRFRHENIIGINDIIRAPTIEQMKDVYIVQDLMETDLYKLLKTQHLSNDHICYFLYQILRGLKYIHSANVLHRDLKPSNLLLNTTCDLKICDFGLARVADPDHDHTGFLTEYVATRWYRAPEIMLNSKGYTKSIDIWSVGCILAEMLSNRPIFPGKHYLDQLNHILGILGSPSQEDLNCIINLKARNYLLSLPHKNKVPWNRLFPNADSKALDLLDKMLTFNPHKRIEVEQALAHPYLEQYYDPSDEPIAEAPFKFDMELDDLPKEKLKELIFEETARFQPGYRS

- residual activity (DAPK1 (human)): 87%
- residual activity (MAP3K9 (human); compound 0.1 µM): 87%
- residual activity (MAP3K9 (human); compound 1.0 µM): 38%
- residual activity (MAP3K9 (human); compound 10.0 µM): 7%
- residual activity (GSK3B (human); compound 0.1 µM): 94%
- residual activity (GSK3B (human); compound 1.0 µM): 78%
- residual activity (GSK3B (human); compound 10.0 µM): 23%
- residual activity (BRSK2 (human); compound 0.1 µM): 86%
- residual activity (BRSK2 (human); compound 1.0 µM): 61%
- residual activity (BRSK2 (human); compound 10.0 µM): 20%
- residual activity (ROCK2 (rat); compound 0.1 µM): 84%
- residual activity (ROCK2 (rat); compound 1.0 µM): 59%
- residual activity (ROCK2 (rat); compound 10.0 µM): 33%
- residual activity (CSK (human); compound 0.1 µM): 99%
- residual activity (CSK (human); compound 1.0 µM): 96%
- residual activity (CSK (human); compound 10.0 µM): 98%
- residual activity (MAP3K1 (human)): 92%
- residual activity (HIPK3 (human)): 100%
- residual activity (HIPK2 (human); compound 0.1 µM): 70%
- residual activity (HIPK2 (human); compound 1.0 µM): 58%
- residual activity (HIPK2 (human); compound 10.0 µM): 15%
- residual activity (LCK (mouse); compound 0.1 µM): 109%
- residual activity (LCK (mouse); compound 1.0 µM): 79%
- residual activity (EPHB1 (human)): 94%
- residual activity (PLK1 (human); compound 0.1 µM): 93%
- residual activity (PLK1 (human); compound 1.0 µM): 31%
- residual activity (PLK1 (human); compound 10.0 µM): 5%
- residual activity (MAP3K5 (human)): 100%
- residual activity (PRKAA1 or PRKAA2 (rat); compound 0.1 µM): 49%
- residual activity (PRKAA1 or PRKAA2 (rat); compound 1.0 µM): 2%
- residual activity (PRKAA1 or PRKAA2 (rat); compound 10.0 µM): 1%
- residual activity (SRC (human); compound 0.1 µM): 93%
- residual activity (SRC (human); compound 1.0 µM): 102%
- residual activity (SRC (human); compound 10.0 µM): 44%
- residual activity (MAP3K7 TAB1 (human)): 115%
- residual activity (EPHA4 (human)): 103%
- residual activity (HIPK1 (human)): 99%
- residual activity (YES1 (human); compound 0.1 µM): 105%
- residual activity (YES1 (human); compound 1.0 µM): 93%
- residual activity (YES1 (human); compound 10.0 µM): 42%
- residual activity (MAPK13 (human); compound 0.1 µM): 118%
- residual activity (MAPK13 (human); compound 1.0 µM): 87%
- residual activity (MAPK13 (human); compound 10.0 µM): 62%
- residual activity (CLK2 (human)): 65%
- residual activity (PRKCZ (human); compound 0.1 µM): 96%
- residual activity (PRKCZ (human); compound 1.0 µM): 105%
- residual activity (PRKCZ (human); compound 10.0 µM): 87%
- residual activity (SYK (human); compound 0.1 µM): 99%
- residual activity (SYK (human); compound 1.0 µM): 66%
- residual activity (SYK (human); compound 10.0 µM): 12%
- residual activity (MARK4 (human)): 110%
- residual activity (MAPK1 (human); compound 0.1 µM): 100%
- residual activity (MAPK1 (human); compound 1.0 µM): 103%
- residual activity (MAPK1 (human); compound 10.0 µM): 61%
- residual activity (INSR (human); compound 0.1 µM): 111%
- residual activity (INSR (human); compound 1.0 µM): 100%
- residual activity (INSR (human); compound 10.0 µM): 68%
- residual activity ([1]; compound 0.1 µM): 86%
- residual activity ([1]; compound 1.0 µM): 98%
- residual activity ([1]; compound 10.0 µM): 74%
- residual activity (EPHB3 (human); compound 0.1 µM): 108%
- residual activity (EPHB3 (human); compound 10.0 µM): 101%
- residual activity (PKN2 (human); compound 0.1 µM): 76%
- residual activity (PKN2 (human); compound 1.0 µM): 31%
- residual activity (PKN2 (human); compound 10.0 µM): 5%
- residual activity (RPS6KA5 KD1 KD2 (human); compound 0.1 µM): 94%
- residual activity (RPS6KA5 KD1 KD2 (human); compound 1.0 µM): 103%
- residual activity (RPS6KA5 KD1 KD2 (human); compound 10.0 µM): 62%
- residual activity (IGF1R (human); compound 0.1 µM): 100%
- residual activity (IGF1R (human); compound 1.0 µM): 103%
- residual activity (IGF1R (human); compound 10.0 µM): 18%
- residual activity (MAPK11 (human); compound 0.1 µM): 109%
- residual activity (MAPK11 (human); compound 1.0 µM): 112%
- residual activity (MAPK11 (human); compound 10.0 µM): 71%
- residual activity (CAMKK2 (human); compound 0.1 µM): 11%
- residual activity (CAMKK2 (human); compound 1.0 µM): 2%
- residual activity (CAMKK2 (human); compound 10.0 µM): 2%
- residual activity (PAK7 (human); compound 0.1 µM): 110%
- residual activity (PAK7 (human); compound 1.0 µM): 88%
- residual activity (PAK7 (human); compound 10.0 µM): 38%
- residual activity (EPHB4 (human)): 122%
- residual activity (PAK6 (human); compound 0.1 µM): 102%
- residual activity (PAK6 (human); compound 1.0 µM): 103%
- residual activity (PAK6 (human); compound 10.0 µM): 61%
Compound: O=C(O)c1ccc(-c2c[nH]c3ncc(-c4ccccc4)cc23)cc1C1CCCC1
